Results reported in patent US9914755B2, “Cyclosporin derivatives wherein the MeBmt sidechain has been cyclized” (Allergan, Inc., priority 2015, dated 2018).
pIC50, pKi: −log10 of the molar value. Converted amounts (≈) assume the structure as drawn. Starred links: 1 amine or outer side, 2 acyl side, 3 side chain; linkers in the order of their positions; H or OH if unused. Non-standard residues stand in square brackets, D forms with d. Residues, ends and D or L forms follow the SMILES beside them. X1 = C[C@@H]1CCO[C@H]1[C@H](C(=O)[*:2])N(C)[*:1]; NMeL = CN[C@@H](CC(C)C)C(=O)O; dNMeL = CN[C@H](CC(C)C)C(=O)O; dNMeV = CN[C@@H](C(=O)O)C(C)C; dNMeA = CN[C@H](C)C(=O)O

Key:
[1] = target: T1, Human recombinant 6-His tagged cyclophilin D (CypD) (Homo sapiens, UniProt P30405); assay: Protease-free PPIase assay, cyclophilin D; assay type: biochemical; conditions: human recombinant 6-His CypD, 10 °C, SUC-AAPF-pNA substrate; read-out: CypD Protease-free PPIase Assay Ki
T1 construct: 6-His
Procedure: (§1) Protease-Free PPIase Assay The protease-free PPIase assay measures the rate of cis to trans conversion of a peptide substrate catalyzed by the enzyme cyclophilin A or D. Addition of a cyclophilin inhibitor (e.g., a test compound) slows the catalyzed rate and a Ki value is obtained. 35 mM HEPES pH 7.8, filtered through a 0.2 μm filter. 50 μM DTT was added prior to use each day and then the buffer was stored on ice. […] Human recombinant 6-His tagged cyclophilin D (CypD), prepared by the University of Edinburgh, was used to generate CypD inhibition data. Succinimide-[…]-nitroanilide (SUC-AAPF-pNA) (from Bachem AG, L-1400), 20 mg/ml prepared in 0.5 M LiCl in trifluoroethanol. All readings were taken with an Agilent 8453 Spectrophotometer which consisted of a cuvette holder, stirrer and chiller to maintain a stirred cuvette temperature of 10.0±0.1° C. The temperature was monitored by the use of temperature probe. […] The inhibitor was diluted in 100% DMSO, and then added to the assay to a maximum final concentration of 0.5% DMSO in the assay. […] The absorbance was measured at 330 nm for 300 s or 500 s for blank runs (NOTE: the substrate was added in one quick injection and the measurements started immediately to minimize mixing errors). A first order rate equation was fitted to the absorbance data, for each concentration of inhibitor, to obtain the rate constant (the first 10 to 15 seconds were excluded, as mixing causes errors in this portion of the curve). The catalytic rate was calculated from the enzymatic rate constant minus the background rate constant. An exponential curve was generated using the catalytic rate constants versus the inhibitor concentration to obtain the Ki value for the inhibitor. The Ki value is indicative of the binding affinity between the test compound and cyclophilin A.

[2] = target: T2, Human recombinant cyclophilin A (CypA) (Homo sapiens, UniProt P62937); assay: Protease-free PPIase assay, cyclophilin A; assay type: biochemical; conditions: human recombinant CypA, 10 °C, SUC-AAPF-pNA substrate; read-out: CypA Protease-free PPIase Assay Ki
T2 construct: purchased Sigma C3805
Procedure: as §1

calcineurin = target: T3, calcineurin (Homo sapiens, UniProt P62937+P63098+Q08209); assay: Calcineurin Phosphatase (CaN) Assay; assay type: biochemical; conditions: in the presence of CypA, 1:1 complex of inhibitor with CypA
T3 construct: purchased Enzo Life Sciences BML-AK804
From the text: Calcineurin Phosphatase (CaN) Assay
The calcineurin phosphatase assay is a means for estimating the immunosuppressive potential of a test compound. Calcineurin is a serine-threonine protein phosphatase that on activation dephosphorylates members of the nuclear factor of activated T cells (NFAT), which are important in T lymphocyte activation.
To investigate the immunosuppressive potential of exemplary compounds of Formula I, which are cyclosporin analogs, their ability to inhibit calcineurin activity was measured in the presence and absence of CypA.
The CaN assay kit used is based on a colorimetric assay for measuring calcineurin phosphatase activity, and it is commercially available (Enzo Life Sciences and Calbiochem). Calmodulin is also required for calcineurin activity, and RII phosphopeptide is used as an efficient peptide substrate for calcineurin. […] The detection of free phosphate released is based on the classic Malachite green assay.
Enzo Life Sciences CaN Assay Kit: BML-AK804
For samples ‘without CypA’, a 4-point dilution series of the inhibitor was prepared in duplicate to obtain a final assay concentration of 10, 1, 0.1 and 0.01 μM. For samples ‘with CypA’, a 7-point dilution series was prepared to obtain a 1:1 complex of the inhibitor with CypA; the inhibitor and CypA final assay concentrations of 10, 3.33, 1.11, 0.37, 0.12, 0.04, 0.014 μM were prepared.
using the half area 96 well plates supplied with the kit, 10 μl UPW was added to duplicate wells to provide the non-inhibited control. 10 μl of the inhibitor or the inhibitor/CypA complex was added to the appropriate sample wells. 25 μl of the 2× assay buffer with calmodulin (CaM) was added to all wells, then 5 μl of calcineurin phosphatase (CaN) was added to all wells (40 U per well final concentration) except duplicate ‘no calcineurin blank’ wells to which 5 μL 1× assay buffer was added. The assay plate was placed in an oven at 30° C. for 15 minutes to equilibrate to the reaction temperature. The reaction was started by the addition of 10 μl RII-peptide (0.15 mM final concentration). The reaction was allowed to proceed at 30° C. for a time period in which the reaction is linear for about 60 minutes. The reaction was then terminated by adding 100 μl of the Malachite Green reagent. The color was allowed to develop for 15-30 minutes at room temperature before the absorbance at 620 nm was measured using a plate reader (Molecular Devices—SpectraMax M5). The data were analyzed by subtracting ‘no calcineurin blank’ from all the absorbance readings and plotting the background corrected absorbances against Log10 inhibitor concentration. A sigmoidal-dose response curve was fitted to the data using GraphPad Prism Software.
It exerts its immunosuppressive activity by binding to CypA to form a complex, which then binds to calcineurin and thereby inhibits calcineurin activity.

physchem = conditions: 25 °C, pH 7.4, aqueous buffer, kinetic from dmso stock
Procedure: The aqueous solubility of a compound of Formula I in buffer (pH 7.8) was measured by recording the onset of precipitation of the compound as a function of increasing concentration. The onset of precipitation, if it occurred, was detected by an increase in absorbance at 650 nm.
Stock solutions of Control and Test Compounds: 10 mM in 100% DMSO.
10 mM stock solutions of control and test compounds were prepared in 100% DMSO.
Assay buffer (247.5 μl) was placed into a flat bottomed transparent 96-well plate. For blank samples, DMSO (2.5 μl) was added. For test and control samples, 2.5 μl of the appropriate DMSO dilution stocks were added to the appropriate well. All test and control compounds were performed in triplicate.
The plates were sealed with adhesive plate seal and shaken at 250 rpm at 25° C. for 18 h on a plate shaker. After incubation, the plate seals were taken off and any bubbles observed in wells removed. The plates were read on a SpectraMaxM5 with a 5 s pre-shake at 650 nm.
Data files were transferred to the appropriate worksheet and the solubility range of the compounds was calculated from the data.

T2 sequence (P62937 whole entry): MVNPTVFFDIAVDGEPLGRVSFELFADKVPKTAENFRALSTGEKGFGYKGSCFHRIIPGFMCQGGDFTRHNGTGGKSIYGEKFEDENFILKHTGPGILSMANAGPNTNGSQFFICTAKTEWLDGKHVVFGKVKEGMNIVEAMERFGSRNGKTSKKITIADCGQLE
T1 sequence (P30405 30-207): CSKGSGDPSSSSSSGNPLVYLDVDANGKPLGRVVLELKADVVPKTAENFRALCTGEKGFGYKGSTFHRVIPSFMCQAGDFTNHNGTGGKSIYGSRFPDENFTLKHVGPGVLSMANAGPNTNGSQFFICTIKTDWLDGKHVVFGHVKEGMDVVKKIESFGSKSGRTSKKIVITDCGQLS

SMILES | pKi [1] | pKi [2] | pIC50 (calcineurin) | solubility at 18 h (physchem) [µM]
CC(C)C[C@@H]1C(=O)N(C)[C@H](CC(C)C)C(=O)N(C)[C@H](C(C)C)C(=O)N(C)[C@H]([C@@H]2OCC[C@H]2C)C(=O)N[C@H](C)C(=O)N(C)[C@H](C)C(=O)N(C)[C@@H](CC(C)C)C(=O)N[C@H](C(C)C)C(=O)N(C)[C@H](CC(C)C)C(=O)N[C@H](C)C(=O)N[C@@H](C)C(=O)N1C [Compound 10, [(2S)-2-(methylamino)-2-[(2R,3R)-3-methyltetrahydrofuran-2-yl]acetic acid]^1 [(R)-methyl-Sar]^3 cyclosporin B] (cyclo(A[dNMeL][dNMeL][dNMeV][X1][dA][dNMeA][NMeL][dV][dNMeL][dA])) | 6.17 | 5.70 | < 5.00 | > 100
CC[C@H]1NC(=O)[C@@H]([C@@H]2OC(=O)N(C)C[C@H]2C)N(C)C(=O)[C@@H](C(C)C)N(C)C(=O)[C@@H](CC(C)C)N(C)C(=O)[C@@H](CC(C)C)N(C)C(=O)[C@H](C)NC(=O)[C@@H](C)NC(=O)[C@@H](CC(C)C)N(C)C(=O)[C@@H](C(C)C)NC(=O)[C@H](CC(C)C)N(C)C(=O)[C@@H](C)N(C)C1=O [Compound 22] | 6.80 | 6.50 | < 5.00 | > 100
CC[C@H]1NC(=O)[C@@H]([C@@H]2OCN(C)C[C@H]2C)N(C)C(=O)[C@@H](C(C)C)N(C)C(=O)[C@@H](CC(C)C)N(C)C(=O)[C@@H](CC(C)C)N(C)C(=O)[C@H](C)NC(=O)[C@@H](C)NC(=O)[C@@H](CC(C)C)N(C)C(=O)[C@@H](C(C)C)NC(=O)[C@H](CC(C)C)N(C)C(=O)[C@@H](C)N(C)C1=O [Compound 24] | 7.10 | 6.26 | < 5.00 | > 100
CC[C@H]1NC(=O)[C@H]([C@@H]2[C@H](C)CCN2C)N(C)C(=O)[C@@H](C(C)C)N(C)C(=O)[C@@H](CC(C)C)N(C)C(=O)[C@@H](CC(C)C)N(C)C(=O)[C@H](C)NC(=O)[C@@H](C)NC(=O)[C@@H](CC(C)C)N(C)C(=O)[C@@H](C(C)C)NC(=O)[C@H](CC(C)C)N(C)C(=O)[C@@H](C)N(C)C1=O [Compound 19, [(2S)-2-[(2S,3R)-1,3-dimethylpyrrolidin-2-yl]-2-(methylamino)acetic acid]^1 [(R)-methyl-Sar]^3 cyclosporin A] | 6.89 | 6.39 | 5.05 | > 100

The next compounds have a higher pKi [1] than those just listed; values first:

pKi [1] | pKi [2] | pIC50 (calcineurin) | solubility at 18 h (physchem) [µM] | SMILES
7.19 | 6.56 | < 5.00 | 75 (≈ 90.2 µg/mL) | CC[C@H]1NC(=O)[C@@H](C2OC(C)C[C@H]2C)N(C)C(=O)[C@@H](C(C)C)N(C)C(=O)[C@@H](CC(C)C)N(C)C(=O)[C@@H](CC(C)C)N(C)C(=O)[C@H](C)NC(=O)[C@@H](C)NC(=O)[C@@H](CC(C)C)N(C)C(=O)[C@@H](C(C)C)NC(=O)[C@H](CC(C)C)N(C)C(=O)[C@@H](C)N(C)C1=O (stereo partly drawn) [Compound 26, [(2S)-2-[(2R,3R)-3,5-dimethyltetrahydrofuran-2-yl]-2-(methylamino)acetic acid]^1 [(R)-methyl-Sar]^3 cyclosporin A]
7.41 | 6.63 | < 5.00 | 50 (≈ 60.8 µg/mL) | CCC[C@@H]1C(=O)N(C)[C@@H](CC(C)C)C(=O)N[C@H](C(C)C)C(=O)N(C)[C@H](CC(C)C)C(=O)N[C@H](C)C(=O)N[C@@H](C)C(=O)N(C)[C@H](CC(C)C)C(=O)N(C)[C@H](CC(C)C)C(=O)N(C)[C@H](C(C)C)C(=O)N(C)[C@H]([C@@H]2OCC[C@H]2C)C(=O)N[C@H](CC)C(=O)N1C [Compound 2, [(2S)-2-(methylamino)-2-[(2R,3R)-3-methyltetrahydrofuran-2-yl]acetic acid]^1 [(R)-propyl-Sar]^3 cyclosporin A]
7.44 | 6.83 | < 5.00 | > 100 | CC[C@H]1NC(=O)[C@H]([C@H]2NCC[C@H]2C)N(C)C(=O)[C@@H](C(C)C)N(C)C(=O)[C@@H](CC(C)C)N(C)C(=O)[C@@H](CC(C)C)N(C)C(=O)[C@H](C)NC(=O)[C@@H](C)NC(=O)[C@@H](CC(C)C)N(C)C(=O)[C@@H](C(C)C)NC(=O)[C@H](CC(C)C)N(C)C(=O)[C@@H](C)N(C)C1=O [Compound 20, [(2S)-2-(methylamino)-2-[(2S,3R)-3-methylpyrrolidin-2-yl]acetic acid]^1 [(R)-methyl-Sar]^3 cyclosporin A]
7.82 | 7.10 | < 5.00 | 25 (≈ 29.7 µg/mL) | CC[C@H]1NC(=O)[C@H]([C@H]2OCC[C@H]2C)N(C)C(=O)[C@@H](C(C)C)N(C)C(=O)[C@@H](CC(C)C)N(C)C(=O)[C@@H](CC(C)C)N(C)C(=O)[C@H](C)NC(=O)[C@@H](C)NC(=O)[C@@H](CC(C)C)N(C)C(=O)[C@@H](C(C)C)NC(=O)[C@H](CC(C)C)N(C)C(=O)[C@@H](C)N(C)C1=O [Compound 18, [(2S)-2-(methylamino)-2-[(2S,3R)-3-methyltetrahydrofuran-2-yl]acetic acid]^1 [(R)-methyl-Sar]^3 cyclosporin A]
7.84 | 6.70 | < 5.00 | 50 (≈ 61.2 µg/mL) | CC[C@H]1NC(=O)[C@@H]([C@@H]2OCC[C@H]2C)N(C)C(=O)[C@@H](C(C)C)N(C)C(=O)[C@@H](CC(C)C)N(C)C(=O)[C@@H](CC(C)C)N(C)C(=O)[C@H](C)NC(=O)[C@@H](C)NC(=O)[C@@H](CC(C)C)N(C)C(=O)[C@@H](C(C)C)NC(=O)[C@H](CC(C)C)N(C)C(=O)[C@@H](C(F)F)N(C)C1=O [Compound 5, [(2S)-2-(methylamino)-2-[(2R,3R)-3-methyltetrahydrofuran-2-yl]acetic acid]^1 [(S)-difluoromethyl-Sar]^3 cyclosporin A]
8.72 | 8.25 | < 5.00 | 50 (≈ 60.1 µg/mL) | CC(C)C[C@@H]1C(=O)N(C)[C@H](CC(C)C)C(=O)N(C)[C@H](C(C)C)C(=O)N(C)[C@H]([C@@H]2OCC[C@H]2C)C(=O)N[C@H](C(C)C)C(=O)N(C)[C@H](C)C(=O)N(C)[C@@H](CC(C)C)C(=O)N[C@H](C(C)C)C(=O)N(C)[C@H](CC(C)C)C(=O)N[C@H](C)C(=O)N[C@@H](C)C(=O)N1C [Compound 6, [(2S)-2-(methylamino)-2-[(2R,3R)-3-methyltetrahydrofuran-2-yl]acetic acid]^1 [(R)-methyl-Sar]^3 cyclosporin D] (cyclo(A[dNMeL][dNMeL][dNMeV][X1][dV][dNMeA][NMeL][dV][dNMeL][dA]))
